The series is described as follows: Solubility of N-cyanomethyl-4-(trifluoromethyl)nicotinamide in salt solutions (HPLC of filtrate). Type of series: physicochemical. Particulars: for Amount of N-cyanomethyl-4-(trifluoromethyl)nicotinamide in Salt Solutions After Filtration: about 18 hours at ambient temperature. As for the experimental part:
In order to determine the effectiveness of a salt to decrease the solubility of N-cyanomethyl-4-(trifluoromethyl)nicotinamide in aqueous solutions, the following tests were conducted:
A salt solution consisting of two grams of a salt dissolved in ten grams of water was prepared. Fifty milligrams of N-cyanomethyl-4-(trifluoromethyl)nicotinamide was added and the resulting mixture was subjected to sonication until all the N-cyanomethyl-4-(trifluoromethyl)nicotinamide had dissolved. The solutions were allowed to stand at ambient temperature for about 18 hours. Each solution was filtered and the filtrate was analyzed by HPLC to determine the amount of N-cyanomethyl-4-(trifluoromethyl)nicotinamide which remained dissolved in the water. An experiment in which no salt was added was included as a control.

Experimental findings from patent US11006630B2, “Stable suspension concentrate formulation for water-soluble compounds” (FMC Corporation, priority 2006, dated 2021) are described below.

On to `N#CCNC(=O)c1cnccc1C(F)(F)F` [N-cyanomethyl-4-(trifluoromethyl)nicotinamide], for which the “Amount of N-cyanomethyl-4-(trifluoromethyl)nicotinamide in Salt Solutions After Filtration” value is, setting by setting: (Control, no salt, 50 mg added to 10 g water) 50.0 mg; (Magnesium Sulfate (Anhydrous), 2 g in 10 g water, 50 mg added) 7.0 mg; (Sodium Sulfate, 2 g in 10 g water, 50 mg added) 10.0 mg. Moreover, the “Reduction of solubility in an aqueous solution” value is on record as “over 90%” (concentration of 20% magnesium sulfate) and 80% (sodium sulfate).
